Experimental data from patent US20240156825A1, “USE OF SELECTIVE VEGFR2 AND FGFR1 INHIBITORS” (Fountain Therapeutics Inc., priority 2022, published 2024).
Read-outs that look alike come from different tables or passages of the source.

Assays:
VEGFR2 and FGFR1 = assay: Selection of compounds that selectively inhibit both VEGFR2 and FGFR1 (average relative IC50); type: biochemical;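 also: relative IC50 is the IC50 for VEGFR2 or FGFR1 divided by the next-lowest IC50 reported against any target gene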
VEGFR2 = VEGFR2 (Homo sapiens, UniProt P35968)
FGFR1 = FGFR1 (Homo sapiens, UniProt P11362)
any gene target = conditions: cited from earlier work
[1] = average of VEGFR2 and FGFR1 relative IC50
[2] = relative IC50: reported IC50 toward VEGFR2 divided by next lowest reported IC50 to any gene target
[3] = relative IC50: reported IC50 toward FGFR1 divided by next lowest reported IC50 to any gene target
[4] = lowest reported IC50 to any gene target, read-out: min IC50
[5] = next lowest IC50 value to any gene target, read-out: Min IC50_μM

Sequence of FGFR1 (P11362 22-822, species assumed): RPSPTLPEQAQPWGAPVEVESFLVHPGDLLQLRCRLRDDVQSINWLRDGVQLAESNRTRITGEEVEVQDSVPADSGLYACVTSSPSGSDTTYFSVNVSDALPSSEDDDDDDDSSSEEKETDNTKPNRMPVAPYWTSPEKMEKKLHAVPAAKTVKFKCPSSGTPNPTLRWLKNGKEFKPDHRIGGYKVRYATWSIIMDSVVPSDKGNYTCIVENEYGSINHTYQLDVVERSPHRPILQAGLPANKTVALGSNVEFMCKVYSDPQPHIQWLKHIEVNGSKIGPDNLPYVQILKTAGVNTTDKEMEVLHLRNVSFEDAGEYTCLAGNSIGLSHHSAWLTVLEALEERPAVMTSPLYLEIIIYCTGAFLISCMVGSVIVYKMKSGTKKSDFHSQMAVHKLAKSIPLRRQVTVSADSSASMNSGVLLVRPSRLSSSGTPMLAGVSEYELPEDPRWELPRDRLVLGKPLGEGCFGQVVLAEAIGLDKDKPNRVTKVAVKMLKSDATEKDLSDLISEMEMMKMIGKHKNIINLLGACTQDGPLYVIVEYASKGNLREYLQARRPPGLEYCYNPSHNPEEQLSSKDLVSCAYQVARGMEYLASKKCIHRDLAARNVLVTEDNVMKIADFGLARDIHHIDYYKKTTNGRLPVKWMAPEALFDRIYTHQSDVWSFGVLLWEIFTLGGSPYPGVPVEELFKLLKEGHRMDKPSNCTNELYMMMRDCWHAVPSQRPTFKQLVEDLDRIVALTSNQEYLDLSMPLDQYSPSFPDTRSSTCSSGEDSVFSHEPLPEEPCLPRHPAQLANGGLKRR
Sequence of VEGFR2 (P35968 20-1356, species assumed): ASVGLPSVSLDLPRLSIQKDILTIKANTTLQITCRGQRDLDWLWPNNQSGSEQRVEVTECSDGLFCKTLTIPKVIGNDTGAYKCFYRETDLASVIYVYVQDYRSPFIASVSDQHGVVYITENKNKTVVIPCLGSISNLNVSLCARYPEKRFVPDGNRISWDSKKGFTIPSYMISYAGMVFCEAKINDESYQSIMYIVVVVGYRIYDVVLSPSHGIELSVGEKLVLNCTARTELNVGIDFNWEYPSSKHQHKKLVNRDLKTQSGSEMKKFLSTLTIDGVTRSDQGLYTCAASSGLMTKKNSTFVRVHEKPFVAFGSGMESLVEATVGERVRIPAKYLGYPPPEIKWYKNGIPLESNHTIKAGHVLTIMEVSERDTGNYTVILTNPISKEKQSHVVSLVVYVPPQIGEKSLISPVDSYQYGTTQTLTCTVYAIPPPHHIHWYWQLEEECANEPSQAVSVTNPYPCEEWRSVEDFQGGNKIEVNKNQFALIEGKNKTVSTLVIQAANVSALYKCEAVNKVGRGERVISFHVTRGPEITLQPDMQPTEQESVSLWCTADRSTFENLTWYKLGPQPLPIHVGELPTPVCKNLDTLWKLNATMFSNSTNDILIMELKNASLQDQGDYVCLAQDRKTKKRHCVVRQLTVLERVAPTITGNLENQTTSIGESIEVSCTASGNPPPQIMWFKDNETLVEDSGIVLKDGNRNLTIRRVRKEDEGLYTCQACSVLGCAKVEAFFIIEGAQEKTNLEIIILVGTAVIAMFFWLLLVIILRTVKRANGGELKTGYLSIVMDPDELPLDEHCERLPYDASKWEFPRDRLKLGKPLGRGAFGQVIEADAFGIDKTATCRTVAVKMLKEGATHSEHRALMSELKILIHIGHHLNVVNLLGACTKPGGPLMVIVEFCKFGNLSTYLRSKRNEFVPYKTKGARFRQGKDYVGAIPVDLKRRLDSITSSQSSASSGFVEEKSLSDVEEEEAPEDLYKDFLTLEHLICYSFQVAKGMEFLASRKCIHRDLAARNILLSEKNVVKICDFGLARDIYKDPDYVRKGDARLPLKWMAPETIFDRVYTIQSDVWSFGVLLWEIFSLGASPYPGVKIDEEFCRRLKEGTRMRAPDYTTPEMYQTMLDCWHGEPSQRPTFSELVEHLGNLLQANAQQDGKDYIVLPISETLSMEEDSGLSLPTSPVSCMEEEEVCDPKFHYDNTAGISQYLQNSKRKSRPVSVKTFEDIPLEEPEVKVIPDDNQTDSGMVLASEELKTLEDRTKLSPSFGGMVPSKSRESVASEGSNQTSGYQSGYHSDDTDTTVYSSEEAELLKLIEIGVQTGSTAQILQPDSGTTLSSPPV

| SMILES | avg rIC50 (VEGFR2 and FGFR1; [1]) | VEGFR2, rIC50 (VEGFR2; [2]) | FGFR1, rIC50 (FGFR1; [3]) | IC50 (any gene target; [4]) [nM] | also measured |
| --- | --- | --- | --- | --- | --- |
| NC(=O)c1c(OCc2c(F)cc(Br)cc2F)nsc1NC(=O)NCCCCN1CCCC1 [compound 9811611, 3-((4-Bromo-2,6-difluorobenzyl)oxy)-5-(3-(4-(pyrrolidin-1-yl)butyl)ureido)isothiazole-4-carboxamide] | 3.6 | 0.4 | 6.7 | 1 | IC50 (any gene target; [5]): 3.08 nM |
| COc1ccc(N2Cc3cnc(Nc4ccccc4)nc3N([C@@H]3CC[C@@H](O)C3)C2=O)cc1 [compound 9910609, (+)-(1R,3R)-1-(3-Hydroxy-cyclopentyl)-3-(4-methoxy-phenyl)-7-phenylamino-3,4-dihydro-1H-pyrimido[4,5-d]pyrimidin-2-one] | 1.4 | 0.4 | 2.4 | 28 | IC50 (any gene target; [5]): 28 nM |
| CONC(=O)c1cc(Nc2ncnn3cc(-c4nnc(C(F)F)o4)c(C(C)C)c23)c(F)cc1F [compound 10073832, 5-[6-(5-Difluoromethyl-[1,3,4]oxadiazol-2-yl)-5-isopropyl-pyrrolo[2,1-f][1,2,4]triazin-4-ylamino]-2,4-difluoro-N-methoxy-benzamide] | 1.1 | 1.0 | 1.2 |  |  |
| CONC(=O)c1cc(Nc2ncnn3cc(-c4nnc(C)[nH]4)c(C(C)C)c23)c(F)cc1F [compound 11328182, 2,4-Difluoro-5-[5-isopropyl-6-(5-methyl-4H-[1,2,4]triazol-3-yl)-pyrrolo[2,1-f][1,2,4]triazin-4-ylamino]-N-methoxy-benzamide] |  | 1.1 |  | 46 | avg rIC50 (VEGFR2 and FGFR1): 1.0; FGFR1, rIC50 (FGFR1): 1.0; IC50 (any gene target; lowest reported IC50 to any gene target, read-out: Min IC50_μM): 46 nM |
| COc1ccc(N2Cc3cnc(Nc4ccccc4)nc3N([C@H]3CC[C@H](O)C3)C2=O)cc1 [compound 11407794, (−)-(1S,3S)-1-(3-Hydroxy-cyclopentyl)-3-(4-methoxy-phenyl)-7-phenylamino-3,4-dihydro-1H-pyrimido[4,5-d]pyrimidin-2-one] | 1.5 | 0.5 | 2.5 | 33 | IC50 (any gene target; [5]): 33 nM |
| CONC(=O)c1cc(Nc2ncnn3cc(-c4nnc(C(F)(F)S(C)(=O)=O)o4)c(C(C)C)c23)c(F)cc1F [compound 11432911, 5-{6-[5-(Difluoro-methanesulfonyl-methyl)-[1,3,4]oxadiazol-2-yl]-5-isopropyl-pyrrolo[2,1-f][1,2,4]triazin-4-ylamino}-2,4-difluoro-N-methoxy-benzamide] | 2.9 | 1.0 | 4.8 |  |  |
| Cc1cc2cc(Nc3ncnn4cc(-c5nnc(C)o5)c(C(C)C)c34)cnc2[nH]1 [compound 22273644, 5-Isopropyl-6-(5-methyl-1,3,4-oxadiazol-2-yl)-N-(2-methyl-1H-pyrrolo[2,3-b]pyridin-5-yl)pyrrolo[2,1-f][1,2,4]triazin-4-amine] | 1.8 | 0.5 | 3.1 | 25 | IC50 (any gene target; [5]): 53 nM |
| CNC(=O)c1cccc2cc(Oc3ccnc4cc(OCC5(N)CC5)c(OC)cc34)ccc12 [compound 25031915, Lucitanib] | 3.0 | 3.6 |  | 10 | FGFR1, rIC50 (FGFR1): 2.5 |
| CCS(=O)(=O)c1ccc2c(c1)C(=Cc1[nH]c3c(c1CN1CCOCC1)CCCC3)C(=O)N2 [compound 44299203, 3-[3-(Morpholinomethyl)-4,5,6,7-tetrahydro-1H-indole-2-ylmethylene]-5-(ethylsulfonyl)-2,3-dihydro-1H-indole-2-one] | 3.6 | 1.4 | 5.7 | 70 |  |
| Cc1nnc(-c2cn3ncnc(Nc4cnc5[nH]ccc5c4)c3c2C(C)C)o1 [compound 44449577, 6-(5-Methyl-1,3,4-oxadiazol-2-yl)-5-propan-2-yl-N-(1H-pyrrolo[2,3-b]pyridin-5-yl)pyrrolo[2,1-f][1,2,4]triazin-4-amine] |  | 0.5 |  |  | avg rIC50 (VEGFR2 and FGFR1): 1.2; FGFR1, rIC50 (FGFR1): 2.0; IC50 (any gene target; read-out: Min IC50_μM): 61 nM; IC50 (any gene target; read-out: min IC50): 61 nM |
| O=C1c2ccc(O)c(O)c2OC[C@]1(O)Cc1ccc(O)c(O)c1 [compound 44578561, Hematoxylone] | 5.3 | 7.2 | 3.4 |  |  |
| CN(C)CCCc1cccc(Nc2ncc3c(n2)-c2ccc(Cl)cc2NC(=S)C3)c1 [compound 56945277, 9-Chloro-2-[3-[3-(dimethylamino)propyl]anilino]-5,7-dihydropyrimido[5,4-d][1]benzazepine-6-thione] |  |  | 2.4 |  |  |
| CNC(=O)c1cccc2cc(Oc3ccnc4cc(OCC5(N)CC5)c(OC)cc34)ccc12.Cl [compound 57379018, 6-((7-((1-Aminocyclopropyl)methoxy)-6-methoxyquinolin-4-yl)oxy)-N-methyl-1-naphthamide hydrochloride] | 3.0 | 3.6 |  |  | FGFR1, rIC50 (FGFR1): 2.5; IC50 (any gene target; read-out: min IC50): 10 nM |
| COc1cc2c(cc1F)C(c1ccccc1Cl)=NC1=C(C)NNC1=N2 [compound 135398512, 5-(2-Chlorophenyl)-7-fluoro-1,2-dihydro-8-methoxy-3-methylpyrazolo(3,4-b)(1,4)benzodiazepine] | 1.6 |  |  |  | VEGFR2, rIC50 (VEGFR2): 0.4; FGFR1, rIC50 (FGFR1): 2.8; IC50 (any gene target; read-out: Min IC50_μM): 24 nM; IC50 (any gene target; read-out: min IC50): 24 nM |
| Nc1c(-c2nc3ccccc3[nH]2)c(=O)[nH]c2ccccc12 [compound 135410282, 4-Amino-3-(1H-benzo[d]imidazol-2-yl)quinolin-2(1H)-one] | 4.4 | 5.8 | 3.0 | 10 |  |
| Fc1ccc2c(-c3nc4cc(N5CCC(N6CCCCC6)CC5)ccc4[nH]3)n[nH]c2c1 [compound 135458467, 2-(6-Fluoro-1H-indazol-3-yl)-5-(4-(piperidin-1-yl)piperidin-1-yl)-1H-benzo[d]imidazole] | 1.8 | 1.6 | 2.0 | 16 |  |
| COC(=O)c1ccc2c(c1)NC(=O)/C2=C(\Nc1ccc(N(C)C(=O)CN2CCN(C)CC2)cc1)c1ccccc1 [compound 135476717, Nintedanib esylate] |  | 1.6 |  | 13 | avg rIC50 (VEGFR2 and FGFR1): 3.5 |
| COC(=O)c1ccc2c(C(=Nc3ccc(CN(C)C(=O)N(C)C)cc3)c3ccccc3)c(O)[nH]c2c1 [compound 135837837, Methyl 3-[N-[4-[[dimethylcarbamoyl(methyl)amino]methyl]phenyl]-C-phenylcarbonimidoyl]-2-hydroxy-1H-indole-6-carboxylate] | 5.6 | 6.1 | 5.0 | 10 |  |
| C[C@@H](Oc1ccc2[nH]nc(-c3nc4cc(N5CCN(C)CC5)ccc4[nH]3)c2c1)c1c(Cl)cncc1Cl [compound 136211077, 5-[(R)-1-(3,5-Dichloropyridine-4-yl)ethoxy]-3-[5-(4-methylpiperazine-1-yl)-1H-benzoimidazole-2-yl]-1H-indazole] | 4.4 | 8.3 | 0.4 | 1 | IC50 (any gene target; Table 2, lowest reported IC50 to any gene target, read-out: Min IC50_μM): 2 nM |
